Laboratory results taken from patent publication US10618914B2 (UNIVERSITY OF PITTSBURGH—OF THE COMMONWEALTH SYSTEM OF …, priority 2015, dated 2020).
Where two headings read alike, the source gives them in different places.

What was measured:
Assay type in all cases: cell-based
STAT3 = experiment: HCS STAT3 assay; settings: read-out: STAT3 IC50 (converted)
STAT1 = STAT1 assay (selectivity counter-screen)
FADU = experiment: Growth inhibition on HNSCC cell line FADU; settings: average of 2 experiments
Cal33 cells = experiment: Cal33 growth inhibition
OSC19 = experiment: Growth inhibition on HNSCC cell line OSC19; settings: average of 2 experiments; read-out: 0SC19 GI50
686LN = experiment: Growth inhibition on HNSCC cell line 686LN; settings: average of 2 experiments
[1] = system: HNSCC cell lines 686LN, FADU, CAL33, OSC19; experiment: Growth inhibition on HNSCC cell line panel; settings: range over cell lines 686LN
[2] = Table 6, average of 2 experiments
[3] = Table 5, * average of 2 experiments

Structure (SMILES) | IC50 (STAT3; Table 4) [µM] | IC50 (STAT1; Table 4) [µM] | GI50 (Cal33 cells; [3]) [µM] | IC50 (STAT1; [3]) [µM] | also measured
c1ccc(C2=Nn3c(nnc3-c3cc(-c4ccccc4)n[nH]3)SC2)cc1 [7b] | 27 | > 50 |  |  | 
COc1ccc(C2=Nn3c(nnc3-c3cc(-c4ccc(Cl)cc4)n[nH]3)SC2C)cc1 (stereo not shown) [compound 24] |  |  |  |  | GI50 (FADU): 8.4 µM; GI50 (Cal33 cells; [2]): 2.2 µM; GI50 (OSC19): 14.9 µM; GI50 (686LN): 17.4 µM
COc1ccc(C2=Nn3c(nnc3-c3cc(-c4ccc(F)cc4)n[nH]3)SC2C)cc1 (stereo not shown) [Cmpd 23] |  |  | 29.5 ± 6.5 | > 30 | IC50 (STAT3; [3]): 4.2 µM
COc1ccc(C2=Nn3c(nnc3-c3[nH]nc4c3CCC4)SC2C(C)C)cc1 (stereo not shown) [Cmpd 26] |  |  | 0.4 ± 0.1 | > 50 | 
c1ccc(-c2cc(-c3nnc4n3N=C(C3CCCCC3)CS4)[nH]n2)cc1 [13b] | > 50 | > 50 |  |  | 
Clc1ccc(C2=Nn3c(nnc3-c3[nH]nc4c3CCC4)SC2)cc1 [2a] |  | > 50 |  |  | 
C1=Nn2c(nnc2-c2cc(-c3ccccc3)n[nH]2)SC1 [11b] | > 50 | > 50 |  |  | 
CC(C)C1Sc2nnc(-c3[nH]nc4c3CCC4)n2N=C1c1ccc(Cl)c(Cl)c1 (stereo not shown) [Cmpd 25] |  |  | 8.2 | > 50 | IC50 (STAT3; [3]): 4.4 µM
CC1Sc2nnc(-c3cc(-c4ccc(F)cc4)n[nH]3)n2N=C1c1ccccc1 (stereo not shown) [Cmpd 22] |  |  | 36.3 ± 9.7 | > 30 | IC50 (STAT3; [3]): 3.8 ± 0.8 µM
CC1=Nn2c(nnc2-c2[nH]nc3c2CCC3)SC1 [12a] | > 50 | > 50 |  |  | 
Clc1ccc(C2=Nn3c(nnc3-c3[nH]nc4c3CCC4)SC2)s1 [10a] |  | > 50 |  |  | 
Clc1cccc(C2=Nn3c(nnc3-c3[nH]nc4c3CCC4)SC2)c1 [6a] |  | > 50 |  |  | 
c1ccc(C2=Nn3c(nnc3-c3[nH]nc4c3CCC4)SC2)cc1 [7a] | 21.2 ± 23.5 | > 50 |  |  | 
CCC(C)C1Sc2nnc(-c3cc(-c4ccccc4)n[nH]3)n2N=C1c1ccc(OC)cc1 (stereo not shown) [Cmpd 28] |  |  | 0.5 | > 50 | 
Clc1cccc(C2=Nn3c(nnc3-c3cc(-c4ccccc4)n[nH]3)SC2)c1 [6b] | 5.6 | 45.9 |  |  | 
CC1Sc2nnc(-c3cc(-c4ccccc4)n[nH]3)n2N=C1c1ccccc1 (stereo not shown) [Cmpd 21] |  |  | 34.1 ± 8.7 | 15 | IC50 (STAT3; [3]): 3.4 µM

Structure (SMILES) | IC50 (STAT3; Table 4) [µM] | IC50 (STAT1; Table 4) [µM] | GI50 (Cal33 cells; [3]) [µM] | IC50 (STAT1; [3]) [µM] | also measured
C1CCC(C2=Nn3c(nnc3-c3[nH]nc4c3CCC4)SC2)CC1 [13a] | > 30 | > 50 |  |  | 
C1=Nn2c(nnc2-c2[nH]nc3c2CCC3)SC1 [11a] | > 50 | > 50 |  |  | 
CC1Sc2nnc(-c3[nH]nc4c3CCC4)n2N=C1c1ccc(Cl)c(Cl)c1 (stereo not shown) [Cmpd 19] |  |  | 1.9 ± 1.2 | > 50 | IC50 (STAT3; [3]): 8.2 ± 2.2 µM
Clc1ccc(C2=Nn3c(nnc3-c3[nH]nc4c3CCC4)SC2)cc1Cl [1a] | 6.8 ± 3.7 | > 50 |  |  | GI50 [1]: 14 to 26 µM
c1cc(C2=Nn3c(nnc3-c3[nH]nc4c3CCC4)SC2)ccn1 [9a] | > 50 | > 50 |  |  | 
CC1(C)Sc2nnc(-c3[nH]nc4c3CCC4)n2N=C1c1ccc(Cl)c(Cl)c1 [Cmpd 32] |  |  | > 50 | > 50 | IC50 (STAT3; [3]): 18.6 µM
CC1=Nn2c(nnc2-c2cc(-c3ccccc3)n[nH]2)SC1 [12b] | > 50 | > 50 |  |  | 
CCCCC1Sc2nnc(-c3[nH]nc4c3CCC4)n2N=C1c1ccc(Cl)c(Cl)c1 (stereo not shown) [Cmpd 29] |  |  | 3.3 | > 50 | IC50 (STAT3; [3]): 7.5 µM
Clc1ccc(C2=Nn3c(nnc3-c3cc(-c4ccccc4)n[nH]3)SC2)cc1 [2b] | 9.6 | > 50 |  |  | GI50 [1]: 27 to 44 µM
Clc1ccc(C2=Nn3c(nnc3-c3cc(-c4ccccc4)n[nH]3)SC2)cc1Cl [1b] |  | > 50 |  |  | 
COc1ccc(C2=Nn3c(nnc3-c3[nH]nc4c3CCC4)SC2C)cc1 (stereo not shown) [Cmpd 20] |  |  | 0.2 | > 50 | IC50 (STAT3; [3]): 9.1 µM
COc1ccc(C2=Nn3c(nnc3-c3[nH]nc4c3CCC4)SC2C)cc1 (stereo not shown) [compound 20] |  |  |  |  | GI50 (FADU): 1.3 µM; GI50 (Cal33 cells; [2]): 0.18 µM; GI50 (OSC19): 3.1 µM; GI50 (686LN): 0.88 µM
CCC(C)C1Sc2nnc(-c3[nH]nc4c3CCC4)n2N=C1c1ccc(OC)cc1 (stereo not shown) [Cmpd 27] |  |  | 3.5 ± 1.5 | > 50 | IC50 (STAT3; [3]): 4.1 µM
c1ccc(-c2cc(-c3nnc4n3N=C(c3ccncc3)CS4)[nH]n2)cc1 [9b] | > 50 | > 50 |  |  | 
Clc1ccc(C2=Nn3c(nnc3-c3cc(-c4ccccc4)n[nH]3)SC2)s1 [10b] | > 50 | > 50 |  |  | 
